# Data reported in patent US6127339A, “Peptide for binding thereto a low density lipoprotein” (Asahi Kasei Kogyo Kabushiki Kaisha, priority 1995, dated 2000).
# No end group written: not given here.
# What was measured:
# [1] = system: LDL; experiment: LDL-adsorbing ratio of peptide-bonded resin in LDL solution (decrease of free cholesterol); type: binding
# [2] = system: LDL; experiment: Staining of peptide-bonded resin with biotinylated LDL in plasma (ABC method); type: binding; parameters: key: the peptide-bonded resins which were stained are indicated with "+ (plus)"; the peptide-bonded resins which were not stained are indicated with "- (minus)"
# Procedure: With respect to the adsorbent comprising the water-insoluble carrier having bonded thereto the peptide, as a method for evaluating the binding ability (affinity) of the adsorbent for an LDL, there can be mentioned a method in which, after causing an LDL to be adsorbed on the adsorbent, the adsorbent having the LDL adsorbed thereon is subjected to staining (avidin-biotin complex method, that is, ABC method). Specifically, a biotinylated LDL is added to plasma, and the adsorbent is immersed in the plasma for a predetermined period of time. Then, the adsorbent is taken out of the plasma, and washed. Subsequently, the adsorbent is immersed in a horseradish peroxidase-labeled streptoavidin solution, and a solution of 3,3'-diamino benzidine, which is a substrate for the above-mentioned enzyme (horseradish peroxidase), is added thereto, thereby staining the adsorbent. The binding ability of the adsorbent for LDL is evaluated from the degree of the staining. With respect to methods for evaluating a binding ability for LDL, reference can be made to, for example, the following literature: S. M. Hsu, L. Raine, H. Fanger, J. Histchem. Cytochem., 29, 577 (1981); and H. Towbin, T. Staehelin, J. Gordon, Proc. Natl. Acad. Sci. U.S.A., 76, 4350 (1979).
# The ability of each of the peptides to bind thereto an LDL was evaluated as follows. To a blood sample obtained from a healthy person was added a 3.8% aqueous solution of sodium citrate to thereby obtain a mixture. The obtained mixture was centrifuged to separate the blood sample into a blood cells component and a plasma component.
# On the other hand, each of the above-mentioned polystyrene resins having bonded thereto the above-synthesized peptides was individually taken out from the synthesis reaction system and packed in a column having a filter (manufactured and sold by Bio-Rad laboratories, U.S.A.). Subsequently, the plasma-LDL mixture prepared above was added to the column, and the column was allowed to stand at room temperature for 1 hour. Then, the column was washed with a physiological saline containing 0.1% Tween 20 and sodium phosphate. After the washing, 1 ml of a horseradish peroxidase-labeled streptoavidine (0.2 ug/ml) solution containing 10% Block Ace (manufacturedand sold by Dainippon Pharmaceutical Co., Ltd., Japan) was added to the column, and the column was allowed to stand at room temperature for 30 minutes. Then, 1 ml of a 3,3'-diaminobenzidine tetrahydrochloride ([…]) solution containing 0.005% hydrogen peroxide was added to the column (by the addition of this solution, when a peptide-bonded resin contained in the column has the LDL bonded thereto, the resin is stained to assume brown color).
# Results are shown in Table 1, wherein the peptide-bonded resins which were stained are indicated with "+ (plus)" and the peptide-bonded resins which were not stained are indicated with "- (minus)".
# The ability of each of the peptides to bind thereto an LDL was evaluated in substantially the same manner as in Example 1.
# [3] = Table 4, peptide-bonded resin 85 mg dry, 1 ml LDL solution 50 μg/ml in PBS
# [4] = Table 6, peptide-bonded resin, same manner as Example 4
# [5] = Table 3, peptide-bonded resin 85 mg dry, 1 ml LDL solution 50 μg/ml in PBS
# [6] = Table 5, D-form and L-form peptides on resin, same manner as Example 4
# [7] = Table 2, peptide-bonded TG resin, same manner as Example 1
# [8] = Table 1, peptide-bonded TG resin, room temperature 1 hour, peroxidase-streptoavidin/3,3'-diaminobenzidine
substance,measurement,setting,value
WFWR (not fully specified) [peptide bonded to TG polystyrene resin],LDL-adsorbing ratio (%),[1]; [3],35.0%
WAAR (not fully specified) [peptide bonded to TG polystyrene resin],LDL-adsorbing ratio (%),[1]; [4],36.3%
LFLMRGGGGG,LDL-adsorbing ratio (%),[1]; [5],36.9%
WWR [WWR (D-form)],LDL-adsorbing ratio (%),[1]; [6],41.6%
LFLMR (not fully specified) [peptide bonded to TG polystyrene resin],LDL-adsorbing ratio (%),[1]; [5],39.3%
WFWKK (not fully specified) [peptide bonded to TG polystyrene resin],LDL-adsorbing ratio (%),[1]; [3],43.0%
WFWK (not fully specified) [peptide bonded to TG polystyrene resin],LDL-adsorbing ratio (%),[1]; [3],33.0%
WFWRR [WFWRR (D-form)],LDL-adsorbing ratio (%),[1]; [6],38.3%
WWR,LDL-adsorbing ratio (%),[1]; [3],32.0%
same,LDL-adsorbing ratio (%),"[1]; Table 5, D-form and L-form peptides on resin, same manner as Example 4, listed as WWR (L-form)",33.8%
WWWR [WWWR (L-form)] (also: L-form) [peptide bonded to TG polystyrene resin],LDL-adsorbing ratio (%),[1]; [6],42.2%
"WAWEEGGGGG (not fully specified) [comparative peptide bonded to TG polystyrene resin, electric charge 0 or less, reference compound]",LDL-adsorbing ratio (%),[1]; [5],4.3%
WAAAAR (not fully specified) [peptide bonded to TG polystyrene resin],LDL-adsorbing ratio (%),[1]; [4],26.3%
WAWRRGGGGG (not fully specified) [peptide bonded to TG polystyrene resin],LDL-adsorbing ratio (%),[1]; [5],49.8%
WWK,LDL-adsorbing ratio (%),[1]; [3],25.0%
"FFFFFFGGGGG [comparative peptide bonded to TG polystyrene resin, electric charge 0 or less, reference compound]",LDL-adsorbing ratio (%),[1]; [5],2.6%
WAWRR (not fully specified) [peptide bonded to TG polystyrene resin],LDL-adsorbing ratio (%),[1]; [5],62.2%
"Comparative Example 2 Sample 11: comparative pentapeptide N1-N5 = W V D H N, bonded to TG polystyrene resin (WVDHN; not fully specified; printed as Trp Val Asp His Asn) [reference compound]",Stain,[2]; [7],-
WFWRR (not fully specified) [peptide bonded to TG polystyrene resin],LDL-adsorbing ratio (%),[1]; [3],49.0%
same,LDL-adsorbing ratio (%),"[1]; Table 5, D-form and L-form peptides on resin, same manner as Example 4, listed as WFWRR (L-form)",39.1%
"Comparative Example 2 Sample 12: comparative pentapeptide N1-N5 = E A K H E, bonded to TG polystyrene resin (EAKHE; not fully specified; printed as Glu Ala Lys His Glu) [reference compound]",Stain,[2]; [7],-
"Comparative Example 2 Sample 7: comparative pentapeptide N1-N5 = F G A I V, bonded to TG polystyrene resin (FGAIV; not fully specified; printed as Phe Gly Ala Ile Val) [reference compound]",Stain,[2]; [7],-
"Example 2 Sample 1: pentapeptide N1-N5 = W T A R R, bonded to TG polystyrene resin (WTARR; not fully specified; printed as Trp Thr Ala Arg Arg)",Stain,[2]; [7],+
WAR,LDL-adsorbing ratio (%),[1]; [4],32.3%
WAAAAAR (not fully specified) [peptide bonded to TG polystyrene resin],LDL-adsorbing ratio (%),[1]; [4],23.7%
"Comparative Example 2 Sample 3: comparative pentapeptide N1-N5 = W H V Q T, bonded to TG polystyrene resin (WHVQT; not fully specified; printed as Trp His Val Gln Thr) [reference compound]",Stain,[2]; [7],-
"Example 2 Sample 11: pentapeptide N1-N5 = F F W R G, bonded to TG polystyrene resin (FFWRG; not fully specified; printed as Phe Phe Trp Arg Gly)",Stain,[2]; [7],+
WAAAR (not fully specified) [peptide bonded to TG polystyrene resin],LDL-adsorbing ratio (%),[1]; [4],39.3%
"Example 1 Sample 1: pentapeptide N1-N5 = R F Y Y M, bonded to TG polystyrene resin (RFYYM; not fully specified; printed as Arg Phe Tyr Tyr Met)",Stain,[2]; [8],+
"Example 2 Sample 5: pentapeptide N1-N5 = R Y A F W, bonded to TG polystyrene resin (RYAFW; not fully specified; printed as Arg Tyr Ala Phe Trp)",Stain,[2]; [7],+
"Example 1 Sample 5: pentapeptide N1-N5 = W A L Y R, bonded to TG polystyrene resin (WALYR; not fully specified; printed as Trp Ala Leu Tyr Arg)",Stain,[2]; [8],+
"Comparative Example 1 Sample 4: comparative pentapeptide N1-N5 = L T M K M, bonded to TG polystyrene resin (LTMKM; not fully specified; printed as Leu Thr Met Lys Met) [reference compound]",Stain,[2]; [8],-
"Comparative Example 2 Sample 9: comparative pentapeptide N1-N5 = E W S M T, bonded to TG polystyrene resin (EWSMT; not fully specified; printed as Glu Trp Ser Met Thr) [reference compound]",Stain,[2]; [7],-
WWWR [WWWR (D-form)],LDL-adsorbing ratio (%),[1]; [6],33.8%
